Results on one molecule are retold here after ChEMBL document CHEMBL1255251, “Effects of Escherichia coli lipopolysaccharide on telithromycin pharmacokinetics in rats: inhibition of metabolism via CYP3A” (Antimicrob Agents Chemother, 2008).

Data set [1] is described as follows: Renal clearance in Sprague-Dawley rat at 50 mg/kg, iv pretreated with Escherichia coli lipopolysaccharide (Rvb=5.29 +/- 0.643 ml/min/kg). The format is ADME, organism-based, Kidney. Details: dose 50 mg/kg, route intravenous. Particulars: in vivo, read-out: CL_renal.
Data set [2] can be described thus: Half life in Sprague-Dawley rat at 50 mg/kg, po pretreated with Escherichia coli lipopolysaccharide (Rvb=123 +/- 63.4 min). Details: dose 50 mg/kg, route oral. The data set is classed as ADME, organism-based. Particulars: in vivo.
Data set [3] can be described thus: Drug absorption in Sprague-Dawley rat gastrointestinal tract at 50 mg/kg, iv after 24 hrs pretreated with Escherichia coli lipopolysaccharide (Rvb=8.53 +/- 4.64 %). The data set is classed as ADME, organism-based. Details: dose 50 mg/kg, route intravenous.
The nature of data set [4]: Drug absorption in Sprague-Dawley rat gastrointestinal tract at 50 mg/kg, po after 24 hrs pretreated with Escherichia coli lipopolysaccharide (Rvb=5.73 +/- 4.57 %). The data set is classed as ADME, organism-based. Details: dose 50 mg/kg, route oral.
For data set [5], the system named is Rattus norvegicus. As to the kind of experiment: AUC in Sprague-Dawley rat at 50 mg/kg, iv pretreated with Escherichia coli lipopolysaccharide (Rvb=1570 +/- 240 ug/min/ml). The format is ADME, organism-based, Plasma. Details: dose 50 mg/kg, route intravenous. The following applies: in vivo.
Data set [6] in a line: Apparent volume of distribution in Sprague-Dawley rat at 50 mg/kg, iv pretreated with Escherichia coli lipopolysaccharide (Rvb=4,950 +/- 1160 ml/kg). Particulars: in vivo, read-out: Vdss(app). The format is ADME, organism-based. Details: dose 50 mg/kg, route intravenous.
A short description of data set [7]: Tmax in Sprague-Dawley rat at 50 mg/kg, po pretreated with Escherichia coli lipopolysaccharide (Rvb=180 min). The data set is classed as ADME, organism-based. Details: dose 50 mg/kg, route oral. The following applies: in vivo.
A short description of data set [8]: Clearance in Sprague-Dawley rat at 50 mg/kg, iv pretreated with Escherichia coli lipopolysaccharide (Rvb=32.4+/- 5.25 ml/min/kg). The format is ADME, organism-based. Details: dose 50 mg/kg, route intravenous. Particulars: in vivo.
Data set [9] in a line: Renal clearance in Sprague-Dawley rat at 50 mg/kg, po pretreated with Escherichia coli lipopolysaccharide (Rvb=4.21 +/- 1.81 ml/min/kg). The data set is classed as ADME, organism-based, Kidney. Details: dose 50 mg/kg, route oral. Particulars: in vivo, read-out: CL_renal.
The test system of data set [10] is Rattus norvegicus. The experiment in a line: Nonrenal clearance in Sprague-Dawley rat at 50 mg/kg, iv pretreated with Escherichia coli lipopolysaccharide (Rvb=27.2 +/- 5.02 ml/min/kg). The following applies: in vivo. Details: dose 50 mg/kg, route intravenous. The format is ADME, organism-based.
The nature of data set [11]: Oral bioavailability in Sprague-Dawley rat at 50 mg/kg, po pretreated with Escherichia coli lipopolysaccharide (Rvb=38.8%). The data set is classed as ADME, organism-based. Particulars: in vivo.
Data set [12] in a line: Drug excretion in Sprague-Dawley rat urine assessed as unchanged drug at 50 mg/kg, po after 24 hrs pretreated with Escherichia coli lipopolysaccharide (Rvb=4.78 +/- 3.28 %). Particulars: read-out: Drug uptake. The format is ADME, organism-based. Details: dose 50 mg/kg, route oral.
Data set [13] can be described thus: Cmax in Sprague-Dawley rat at 50 mg/kg, po pretreated with Escherichia coli lipopolysaccharide (Rvb=2.35 +/- 1.19 ug/ml). The following applies: in vivo. The format is ADME, organism-based. Details: dose 50 mg/kg, route oral.
A short description of data set [14]: Half life in Sprague-Dawley rat at 50 mg/kg, iv pretreated with Escherichia coli lipopolysaccharide (Rvb=159 +/- 56.3 min). The data set is classed as ADME, organism-based. Details: dose 50 mg/kg, route intravenous. Particulars: in vivo.
The test system of data set [15] is Rattus norvegicus. The experiment in a line: AUC in Sprague-Dawley rat at 50 mg/kg, po pretreated with Escherichia coli lipopolysaccharide (Rvb=609 +/- 323 ug/min/ml). The format is ADME, organism-based, Plasma. Details: dose 50 mg/kg, route oral. Particulars: in vivo.
Data set [16] can be described thus: Drug excretion in Sprague-Dawley rat urine assessed as unchanged drug at 50 mg/kg, iv after 24 hrs pretreated with Escherichia coli lipopolysaccharide (Rvb=16.5 +/- 2.32 %). The data set is classed as ADME, organism-based. Particulars: read-out: Drug uptake. Details: dose 50 mg/kg, route intravenous.

By half-life is commonly meant the time needed for the level to fall by half in the phase considered. As usually defined, the Tmax is the time at which the peak concentration occurs. As a reminder, the clearance is the rate of elimination divided by the concentration. Broadly, the bioavailability is dose-corrected exposure relative to a reference, in per cent. As usually defined, the Cmax is the highest concentration seen after dosing. Consider `CC[C@H]1OC(=O)[C@H](C)C(=O)[C@H](C)[C@@H](O[C@@H]2O[C@H](C)C[C@H](N(C)C)[C@H]2O)[C@](C)(OC)C[C@@H](C)C(=O)[C@H](C)[C@H]2N(CCCCn3cnc(-c4cccnc4)c3)C(=O)O[C@]12C` [TELITHROMYCIN], for which the figures for the CL renal in data set [1] and in data set [9] were 4.27 mL/min/kg and 3.17 mL/min/kg, respectively. The half-life in [2] is 2.33 h; in [14], 2.55 h. For the same molecule, the percent of dose recovered from gastrointestinal tract at 24 h in data set [3] was 5.31%; in [4] it was 9.63%. In addition, the AUC in the data set with Rattus norvegicus [5] worked out at 2880 µg/min/mL; in the data set on Rattus norvegicus [15], 1460 µg/min/mL. Moreover, in data set [6], the Vd is 3.28 L/kg. In addition, the Tmax in data set [7] is 3 h. Further, the clearance in data set [8] turned out to be 19.4 mL/min/kg. In addition, the CL with Rattus norvegicus [10] worked out at 15.1 mL/min/kg. In [11], the bioavailability came to 50.7%. For the same molecule, the dose excreted at 24 h in data set [12] was determined as 9.54%; in data set [16] it was 23.8%. Moreover, the Cmax in [13] was determined as 5030 ng/mL.
